Details: Liquid; for mass density / viscosity: 298.15 K; for mass density: 101.33 kPa; for vapor or sublimation pressure: Twin ebulliometer

C1C[C@@H]2[C@H]3CC[C@H](C3)[C@@H]2C1 [exo-tetrahydrodicyclopentadiene]
Details	mass density [kg/m3]	vapor or sublimation pressure [kPa]	viscosity [mPa·s]
–	931.4	–	2.739
393 K	–	14.8	–
397.64 K	–	17.5	–
402.29 K	–	20.7	–
406.93 K	–	24.2	–
411.57 K	–	28.2	–
416.21 K	–	32.7	–
420.86 K	–	37.8	–
425.5 K	–	43.3	–
430.14 K	–	49.5	–
434.79 K	–	56.3	–
439.43 K	–	63.8	–
444.07 K	–	72	–
448.71 K	–	80.9	–
453.36 K	–	90.6	–
458 K	–	101.1	–

COC(=O)OC [dimethyl carbonate]
Details	mass density [kg/m3]	vapor or sublimation pressure [kPa]	viscosity [mPa·s]
–	1063.4	–	0.578
310 K	–	12.17	–
313.86 K	–	14.7	–
317.71 K	–	17.65	–
321.57 K	–	21.05	–
325.43 K	–	24.96	–
329.29 K	–	29.43	–
333.14 K	–	34.51	–
337 K	–	40.26	–
340.86 K	–	46.73	–
344.71 K	–	53.99	–
348.57 K	–	62.11	–
352.43 K	–	71.13	–
356.29 K	–	81.14	–
360.14 K	–	92.2	–
364 K	–	104.4	–

Reference: the NIST ThermoML archive (doi:10.1016/j.fluid.2009.06.002)
